Activity calls are given as the source filed them. The rule behind the calls is not given here.
How the values were obtained:
HeLa [1] = test: Anticancer activity against human HeLa cells assessed as inhibition of cell growth measured after 48 hrs by MTT assay; assay type: functional, cell-based
DU-145 = test: Anticancer activity against human DU-145 cells assessed as inhibition of cell growth measured after 48 hrs by MTT assay; assay type: functional, cell-based; conditions: DU-145, 48 h
[2] = Cytotoxicity against HEK293 cells assessed as inhibition of cell growth measured after 48 hrs by MTT assay; assay type: toxicity, cell-based; conditions: human
HepG2 = test: Anticancer activity against human HepG2 cells assessed as inhibition of cell growth measured after 48 hrs by MTT assay; assay type: functional, cell-based; conditions: HepG2, 48 h
MCF7 = test: Anticancer activity against human MCF7 cells assessed as inhibition of cell growth measured after 48 hrs by MTT assay; assay type: functional, cell-based; conditions: MCF7, 48 h
K562 [3] = test: Anticancer activity against human K562 cells assessed as inhibition of cell growth measured after 48 hrs by MTT assay; assay type: functional, cell-based; conditions: K562, 48 h
HeLa [4] = test: Induction of cell cycle arrest in human HeLa cells assessed as accumulation of cells at subG1 phase at 1 uM measured after 48 hrs by propidium iodide staining based flow cytometry analysis (reference value: 6.8%); assay type: functional
HeLa [5] = test: Induction of cell cycle arrest in human HeLa cells assessed as accumulation of cells at G2/M phase at 5 uM measured after 48 hrs by propidium iodide staining based flow cytometry analysis (reference value: 6.9%); assay type: functional
HeLa [6] = test: Induction of apoptosis in human HeLa cells assessed as nuclear condensation at 1 to 5 uM measured after 48 hrs by Hoechst staining based fluorescent microscopic analysis; assay type: functional, cell-based; conditions: dose 1-5 µM
HeLa [7] = test: Induction of apoptosis in human HeLa cells assessed as late apoptotic cells at 5 uM measured after 48 hrs by annexin V-FITC based propidium iodide dual staining based flow cytometry analysis (reference value: 3.5%); assay type: functional
HeLa [8] = test: Induction of cell cycle arrest in human HeLa cells assessed as accumulation of cells at G0/G1 phase at 5 uM measured after 48 hrs by propidium iodide staining based flow cytometry analysis (reference value: 85.6%); assay type: functional
HeLa [9] = test: Induction of cell cycle arrest in human HeLa cells assessed as accumulation of cells at G2/M phase at 1 uM measured after 48 hrs by propidium iodide staining based flow cytometry analysis (reference value: 6.9%); assay type: functional
HeLa [10] = test: Induction of cell cycle arrest in human HeLa cells assessed as accumulation of cells at S phase at 5 uM measured after 48 hrs by propidium iodide staining based flow cytometry analysis (reference value: 1.0%); assay type: functional
K562 [11] = test: Downregulation of EGFR expression in human K562 cells measured after 48 hrs by RT-qPCR analysis; assay type: functional, cell-based; conditions: dose 1-5 µM
HeLa [12] = test: Induction of apoptosis in human HeLa cells assessed as necrotic cells at 5 uM measured after 48 hrs by annexin V-FITC based propidium iodide dual staining based flow cytometry analysis (reference value: 1.0%); assay type: functional
HeLa [13] = test: Induction of apoptosis in human HeLa cells assessed as viable cells at 5 uM measured after 48 hrs by annexin V-FITC based propidium iodide dual staining based flow cytometry analysis (reference value: 81.7%); assay type: functional; conditions: read-out: Activity
HeLa [14] = test: Induction of apoptosis in human HeLa cells assessed as early apoptotic cells at 1 uM measured after 48 hrs by annexin V-FITC based propidium iodide dual staining based flow cytometry analysis (reference value: 13.8%); assay type: functional
HeLa [15] = test: Induction of cell cycle arrest in human HeLa cells assessed as accumulation of cells at G0/G1 phase at 1 uM measured after 48 hrs by propidium iodide staining based flow cytometry analysis (reference value: 85.6%); assay type: functional
HeLa [16] = test: Induction of cell cycle arrest in human HeLa cells assessed as accumulation of cells at S phase at 1 uM measured after 48 hrs by propidium iodide staining based flow cytometry analysis (reference value: 1.0%); assay type: functional
HeLa [17] = test: Induction of apoptosis in human HeLa cells assessed as late apoptotic cells at 1 uM measured after 48 hrs by annexin V-FITC based propidium iodide dual staining based flow cytometry analysis (reference value: 3.5%); assay type: functional
HeLa [18] = test: Induction of apoptosis in human HeLa cells assessed as early apoptotic cells at 5 uM measured after 48 hrs by annexin V-FITC based propidium iodide dual staining based flow cytometry analysis (reference value: 13.8%); assay type: functional
K562 [19] = test: Downregulation of MCL-1 expression in human K562 cells measured after 48 hrs by RT-qPCR analysis; assay type: functional, cell-based; conditions: dose 1-5 µM
HeLa [20] = test: Induction of cell cycle arrest in human HeLa cells assessed as accumulation of cells at subG1 phase at 5 uM measured after 48 hrs by propidium iodide staining based flow cytometry analysis (reference value: 6.8%); assay type: functional
HeLa [21] = test: Induction of apoptosis in human HeLa cells assessed as viable cells at 1 uM measured after 48 hrs by annexin V-FITC based propidium iodide dual staining based flow cytometry analysis (reference value: 81.7%); assay type: functional; conditions: read-out: Activity
HeLa [22] = test: Induction of apoptosis in human HeLa cells assessed as necrotic cells at 1 uM measured after 48 hrs by annexin V-FITC based propidium iodide dual staining based flow cytometry analysis (reference value: 1.0%); assay type: functional
K562 [23] = test: Downregulation of EGFR expression in human K562 cells at 1 to 5 uM measured after 48 hrs by RT-qPCR analysis; assay type: functional, cell-based; conditions: dose 1-5 µM
K562 [24] = test: Downregulation of MCL-1 expression in human K562 cells at 1 to 5 uM measured after 48 hrs by RT-qPCR analysis; assay type: functional, cell-based; conditions: dose 1-5 µM

| Structure (SMILES) | IC50 (HeLa [1]) | IC50 (DU-145) | IC50 at 48 h [2] | IC50 (HepG2) | IC50 (MCF7) | IC50 (K562 [3]) | further results |
| --- | --- | --- | --- | --- | --- | --- | --- |
| CC1(C)OC(=O)C(=Cc2cn(Cc3cn(-c4ccc(Cl)cc4)nn3)c3ncccc23)C(=O)O1 | 16.7 µM | 22.6 µM | 97.3 µM | 24.5 µM | 22.9 µM | 20.5 µM | – |
| CC1(C)OC(=O)C(=Cc2cn(Cc3cn(-c4cc(Cl)cc(Cl)c4)nn3)c3ncccc23)C(=O)O1 | 25 µM | 37.8 µM | > 100 µM | 49.4 µM | 25.4 µM | 26.8 µM | – |
| CC1(C)OC(=O)C(=Cc2cn(Cc3cn(-c4cccc(Cl)c4)nn3)c3ncccc23)C(=O)O1 | 12.8 µM | 28.4 µM | > 100 µM | 26.6 µM | 20.1 µM | 17.2 µM | – |
| CC1(C)OC(=O)C(=Cc2cn(Cc3cn(-c4ccccc4)nn3)c3ncccc23)C(=O)O1 | 21.3 µM | 49.3 µM | > 100 µM | 29.2 µM | 28.3 µM | 20.2 µM | – |
| CC1(C)OC(=O)C(=Cc2cn(Cc3cn(-c4ccc(I)cc4)nn3)c3ncccc23)C(=O)O1 | 16.2 µM | 32.1 µM | > 100 µM | 27.9 µM | 15.2 µM | 16.8 µM | – |
| CC1(C)OC(=O)C(=Cc2cn(Cc3cn(-c4ccc([N+](=O)[O-])cc4)nn3)c3ncccc23)C(=O)O1 | 19.4 µM | 27.7 µM | > 100 µM | 30.1 µM | 25.8 µM | 21.4 µM | – |
| CC1(C)OC(=O)C(=Cc2cn(Cc3cn(-c4ccc(Cl)c(Cl)c4)nn3)c3ncccc23)C(=O)O1 | 16.6 µM | 33.8 µM | > 100 µM | 26.1 µM | 24.2 µM | 20.2 µM | – |
| COc1cc(-n2cc(Cn3cc(C=C4C(=O)OC(C)(C)OC4=O)c4cccnc43)nn2)cc(OC)c1OC | 9.52 µM | 18.8 µM | 76.6 µM | 20.1 µM | 13.1 µM | 14.3 µM | – |
| CC1(C)OC(=O)C(=Cc2cn(Cc3cn(-c4ccc(F)cc4)nn3)c3ncccc23)C(=O)O1 | 18.9 µM | 22.8 µM | > 100 µM | 37 µM | 20.8 µM | 19.1 µM | – |
| CC1(C)OC(=O)C(=Cc2cn(Cc3cn(-c4ccc(Br)cc4)nn3)c3ncccc23)C(=O)O1 | 6.87 µM | 15.4 µM | 93.9 µM | 29.1 µM | 7.32 µM | 12.5 µM | – |
| Cc1ccc(-n2cc(Cn3cc(C=C4C(=O)OC(C)(C)OC4=O)c4cccnc43)nn2)cc1 | 4.44 µM | 12.4 µM | > 100 µM | 9.97 µM | 6.67 µM | 6.03 µM | Activity (HeLa [4]): 6%; Activity (HeLa [5]): 54.4%; Activity (HeLa [6]): Active; Activity (HeLa [7]): 4.6%; Activity (HeLa [8]): 39.1%; Activity (HeLa [9]): 20.7%; Activity (HeLa [10]): 2.7%; Activity (K562 [11]): Dose-Dependent Effect; Activity (HeLa [12]): 0.3%; viability at 5 µM (HeLa [13]): 55.4%; Activity (HeLa [14]): 16.8%; Activity (HeLa [15]): 72.2%; Activity (HeLa [16]): 2.1%; Activity (HeLa [17]): 2.5%; Activity (HeLa [18]): 39.7%; Activity (K562 [19]): Dose-Dependent Effect; Activity (HeLa [20]): 3.1%; viability at 1 µM (HeLa [21]): 79.2%; Activity (HeLa [22]): 1.5% |
| COc1cccc2c1C(=O)c1c(O)c3c(c(O)c1C2=O)C[C@@](O)(C(=O)CO)C[C@@H]3O[C@H]1C[C@H](N)[C@H](O)[C@H](C)O1 [DOXORUBICIN] | – | – | – | – | 1.48 µM | 1.23 µM | Activity (HeLa [4]): 4.2%; Activity (HeLa [5]): 52.7%; Activity (HeLa [7]): 4.8%; Activity (HeLa [8]): 40.3%; Activity (HeLa [9]): 34.2%; Activity (HeLa [10]): 2.6%; Activity (HeLa [12]): 0.5%; viability at 5 µM (HeLa [13]): 64.4%; Activity (HeLa [14]): 19.6%; Activity (HeLa [15]): 60%; Activity (K562 [23]): Active; Activity (HeLa [16]): 3%; Activity (HeLa [17]): 3.1%; Activity (HeLa [18]): 30.3%; Activity (K562 [24]): Active; Activity (HeLa [20]): 3.7%; viability at 1 µM (HeLa [21]): 75.6%; Activity (HeLa [22]): 1.7% |
| CC1(C)OC(=O)C(=Cc2cn(Cc3cn(-c4ccc(Br)cc4F)nn3)c3ncccc23)C(=O)O1 | 10.3 µM | 22.6 µM | 90.8 µM | 27.8 µM | 19.9 µM | 19.1 µM | – |
| CC1(C)OC(=O)C(=Cc2cn(Cc3cn(-c4ccccc4Cl)nn3)c3ncccc23)C(=O)O1 | 12.8 µM | 15.4 µM | > 100 µM | 21.9 µM | 18 µM | 16.1 µM | – |
| COc1ccc(-n2cc(Cn3cc(C=C4C(=O)OC(C)(C)OC4=O)c4cccnc43)nn2)cc1 | 15.9 µM | 33.8 µM | 99.7 µM | 42.1 µM | 36.1 µM | 16.4 µM | – |
| COc1cc(OC)cc(-n2cc(Cn3cc(C=C4C(=O)OC(C)(C)OC4=O)c4cccnc43)nn2)c1 | 9.68 µM | 14.7 µM | 81.7 µM | 28.4 µM | 20.2 µM | 14.5 µM | – |

Source: ChEMBL document CHEMBL5634208, “Design and synthesis of Meldrum's acid based 7-azaindole anchored 1,2,3-triazole hybrids as anticancer agents” (RSC Med Chem, 2024)
